Experimental data: the NIST ThermoML archive (doi:10.1021/je900864n)
± gives the expanded uncertainty stated by the source.

What was measured:
[1] = refractive index (other wavelength) (dimensionless); wn = mass fraction of the nth substance listed; settings: 101 kPa, Liquid, Wavelength=632.8 nm, Standard Abbe refractometry
[2] = 101.33 kPa, Liquid
[3] = refractive index (other wavelength) (dimensionless); settings: 101 kPa, Liquid, Wavelength=632.8 nm, Standard Abbe refractometry

OCCCCO [1,4-butanediol] + CCCCn1cc[n+](C)c1.F[B-](F)(F)F
[1]
Settings | refractive index
296.24 K, w2 = 0.894 | 1.4221 ± 0.0004
298.19 K, w2 = 0.894 | 1.4216 ± 0.0004
300.13 K, w2 = 0.894 | 1.4211 ± 0.0004
301.24 K, w2 = 0.786 | 1.4216 ± 0.0004
302.15 K, w2 = 0.894 | 1.4206 ± 0.0004
303.16 K, w2 = 0.786 | 1.4211 ± 0.0004
303.25 K, w2 = 0.686 | 1.4223 ± 0.0004
304.14 K, w2 = 0.894 | 1.42 ± 0.0004
304.22 K, w2 = 0.579 | 1.4237 ± 0.0004
304.24 K, w2 = 0.786 | 1.4208 ± 0.0004
305.26 K, w2 = 0.686 | 1.4218 ± 0.0004
306.24 K, w2 = 0.579 | 1.4231 ± 0.0004
306.25 K, w2 = 0.094 | 1.4367 ± 0.0004
306.69 K, w2 = 0.894 | 1.4194 ± 0.0004
306.7 K, w2 = 0.484 | 1.4247 ± 0.0004
307.2 K, w2 = 0.094 | 1.4364 ± 0.0004
307.21 K, w2 = 0.786 | 1.42 ± 0.0004
307.29 K, w2 = 0.686 | 1.4212 ± 0.0004
308.22 K, w2 = 0.484 | 1.4243 ± 0.0004
308.24 K, w2 = 0.094 | 1.4361 ± 0.0004
308.27 K, w2 = 0.579 | 1.4225 ± 0.0004
309.2 K, w2 = 0.686 | 1.4207 ± 0.0004
309.23 K, w2 = 0.094 | 1.4358 ± 0.0004
309.24 K, w2 = 0.786 | 1.4195 ± 0.0004
309.26 K, w2 = 0.381 | 1.4264 ± 0.0004
309.55 K, w2 = 0.19 | 1.4322 ± 0.0004
309.73 K, w2 = 0.484 | 1.4238 ± 0.0004
309.88 K, w2 = 0.286 | 1.4289 ± 0.0004
310.17 K, w2 = 0.094 | 1.4355 ± 0.0004
310.22 K, w2 = 0.579 | 1.422 ± 0.0004
310.64 K, w2 = 0.381 | 1.426 ± 0.0004
311.22 K, w2 = 0.286 | 1.4285 ± 0.0004
311.22 K, w2 = 0.686 | 1.4202 ± 0.0004
311.25 K, w2 = 0.19 | 1.4317 ± 0.0004
311.33 K, w2 = 0.484 | 1.4234 ± 0.0004
311.85 K, w2 = 0.786 | 1.4188 ± 0.0004
312.19 K, w2 = 0.579 | 1.4214 ± 0.0004
312.27 K, w2 = 0.094 | 1.4349 ± 0.0004
312.31 K, w2 = 0.381 | 1.4255 ± 0.0004
312.78 K, w2 = 0.19 | 1.4312 ± 0.0004
312.88 K, w2 = 0.484 | 1.4229 ± 0.0004
313 K, w2 = 0.286 | 1.4279 ± 0.0004
313.28 K, w2 = 0.686 | 1.4196 ± 0.0004
313.79 K, w2 = 0.381 | 1.4251 ± 0.0004
314.29 K, w2 = 0.19 | 1.4308 ± 0.0004
314.29 K, w2 = 0.579 | 1.4208 ± 0.0004
314.31 K, w2 = 0.484 | 1.4225 ± 0.0004
314.32 K, w2 = 0.094 | 1.4343 ± 0.0004
314.39 K, w2 = 0.286 | 1.4275 ± 0.0004
315.65 K, w2 = 0.381 | 1.4246 ± 0.0004
315.79 K, w2 = 0.286 | 1.4271 ± 0.0004
316.13 K, w2 = 0.19 | 1.4302 ± 0.0004
317.3 K, w2 = 0.19 | 1.4299 ± 0.0004
317.35 K, w2 = 0.286 | 1.4266 ± 0.0004
317.38 K, w2 = 0.381 | 1.4241 ± 0.0004

CCCCn1cc[n+](C)c1.F[B-](F)(F)F [1-butyl-3-methylimidazolium tetrafluoroborate]
Settings | mass density [kg/m3] | refractive index
[2], 293.15 K | 1210.05 ± 1.2 | –
[2], 298.15 K | 1206.32 ± 1.2 | –
[2], 303.15 K | 1202.59 ± 1.2 | –
[2], 308.15 K | 1198.97 ± 1.2 | –
[2], 313.15 K | 1195.24 ± 1.1 | –
[3], 286.91 K | – | 1.4228 ± 0.0004
[3], 288.89 K | – | 1.4223 ± 0.0004
[3], 290.92 K | – | 1.4218 ± 0.0005
[3], 293.04 K | – | 1.4212 ± 0.0005
[3], 295.03 K | – | 1.4207 ± 0.0004
[3], 297.04 K | – | 1.4202 ± 0.0004
[3], 299.02 K | – | 1.4197 ± 0.0004
[3], 304.12 K | – | 1.4184 ± 0.0004
[3], 309.02 K | – | 1.4171 ± 0.0005
[3], 314.35 K | – | 1.4157 ± 0.0004
[3], 318.92 K | – | 1.4146 ± 0.0004
